Results on 28 molecules are retold here after article PMC3261798, “Design, Synthesis, and Biological Evaluation of PKD Inhibitors” (Pharmaceutics, 2011).

For data set [1], the target named is T1, PKD1 (Homo sapiens, UniProt Q15139).
T1 sequence (Q15139 1-912): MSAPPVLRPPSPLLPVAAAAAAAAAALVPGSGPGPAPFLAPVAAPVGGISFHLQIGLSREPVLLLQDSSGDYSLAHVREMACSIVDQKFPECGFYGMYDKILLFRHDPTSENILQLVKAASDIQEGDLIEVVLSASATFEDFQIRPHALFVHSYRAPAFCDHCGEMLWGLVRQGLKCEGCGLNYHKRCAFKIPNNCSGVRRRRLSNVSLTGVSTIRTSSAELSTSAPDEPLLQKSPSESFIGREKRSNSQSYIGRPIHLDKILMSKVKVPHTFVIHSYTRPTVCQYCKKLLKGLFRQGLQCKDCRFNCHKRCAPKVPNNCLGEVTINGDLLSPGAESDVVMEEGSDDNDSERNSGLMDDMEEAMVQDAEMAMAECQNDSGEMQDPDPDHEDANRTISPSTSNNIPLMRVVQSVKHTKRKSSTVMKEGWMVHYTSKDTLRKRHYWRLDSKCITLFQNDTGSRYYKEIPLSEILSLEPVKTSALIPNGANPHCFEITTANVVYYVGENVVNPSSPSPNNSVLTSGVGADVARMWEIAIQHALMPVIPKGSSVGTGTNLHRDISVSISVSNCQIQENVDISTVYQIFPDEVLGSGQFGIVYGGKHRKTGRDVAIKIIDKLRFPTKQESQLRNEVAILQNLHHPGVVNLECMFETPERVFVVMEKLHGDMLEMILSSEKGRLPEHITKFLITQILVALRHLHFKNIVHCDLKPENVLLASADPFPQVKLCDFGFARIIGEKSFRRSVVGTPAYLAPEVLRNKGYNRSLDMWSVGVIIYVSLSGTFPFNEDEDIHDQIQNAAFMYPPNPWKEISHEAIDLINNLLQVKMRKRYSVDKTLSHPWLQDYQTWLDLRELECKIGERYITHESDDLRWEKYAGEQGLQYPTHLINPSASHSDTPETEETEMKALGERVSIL
The data set is described as follows: IMAP-based PKD Fluorescence Polarization (FP) assay, automated HTS format. It counts as biochemical. Conditions: mean ± SEM, n = number of independent experiments. The procedure:
An automated, HTS formatted IMAP-based PKD Fluorescence Polarization (FP) assay was used to assess the specificity of the PKD analogs as previously described. […] Kinase reactions were incubated for 90 min at room temperature and stopped by the addition of IMAP binding reagent. Assay plates were then incubated for 2 h and IMAP-based FP data were captured on a Molecular Devices Spectra-Max M5 (Sunnyvale, CA, USA).
A general note: In fluorescence polarisation assays a small probe gives low polarisation when free and higher when bound to something large.

Data set [2] addresses T1, PKD1. The data set is described as follows: In vitro radiometric PKD kinase activity assay. Also on record: purchased Biomol International. It counts as biochemical. Conditions: for IC50: read-out: IC50 Radiometric PKD1; for inhibitory activity against PKD (in words): preliminary biological data for kmg-NB5-13 and kmg-NB5-15. The protocol: In vitro radiometric PKD kinase assays were conducted as previously described. Briefly, 50 ng recombinant human PKD1 (Biomol International, Plymouth Meeting, PA, USA) was incubated at 30 °C for 10 min with a reaction mixture containing 2.5 μg syntide-2 (Sigma), 70 μM ATP, and 1 μCi γ-^32 P-ATP (PerkinElmer, Boston, MA, USA) in kinase buffer (50 mM Tris-HCl pH 7.5, […], and 10 mM […]). 25 μL of the reaction mixture was then spotted on Whatman P81 filter paper (Whatman Inc., Clifton, NJ, USA), and filter papers were washed three times with 0.5% phosphoric acid, dried, then counted using a Beckman LS6500 multi-purpose scintillation counter.

[3] abbreviates: mean ± SEM, n = number of independent experiments.

Where a name gives a salt, the structure may show the parent alone. Bounds are passed on as bounds.

A word on the melting point: it is the temperature, or range, at which the solid turns liquid. As for `O=C1NCCSc2c1sc1cnc(O)nc21` (as salt: hydrochloride) [kmg-NB4-69A, 2-Hydroxy-7H,8H,9H-1,4-thiazepino[7′,6′-5,4]thiopheno[3,2-d]pyrimidin-6-one], the melting point was 335.9 °C (dec.).

For `CC(C)(C)[Si](C)(C)Oc1ccc2oc3c(c2c1)CCCNC3=O` [kb-NB77-77, 7-(tert-Butyldimethylsilyloxy)-2,3,4,5-tetrahydro-[1]benzoxolo[2,3-c]azepin-1-one], the melting point lay within 209 to 212 °C. For the same molecule, the “IC50 IMAP-FP PKD1” value on PKD1 [1] is “not inhibitory”.

For `CC(C)(C)[Si](C)(C)Oc1ccc2oc(=O)c3c(c2c1)CCCN3` [kb-NB77-78, 9-(tert-Butyldimethylsilyloxy)-1,2,3,4-tetrahydrochromeno[3,4-b]pyridin-5-one], the melting point fell in the range of 117 to 119 °C. On PKD1 [1], the “IC50 IMAP-FP PKD1” value was “not inhibitory”.

As for `C=CCOc1ccc2oc(=O)c3c(c2c1)CCCN3` [kb-NB77-83, 9-Allyloxy-1,2,3,4-tetrahydrochromeno[3,4-b]pyridin-5-one], the melting point was in the range of 90 to 91 °C. The “IC50 IMAP-FP PKD1” value on PKD1 [1] was “not inhibitory”.

`O=C(OCc1ccccc1)N1CCCc2c1c(=O)oc1ccc(O)cc21` [kb-NB77-91, Benzyl 9-hydroxy-5-oxo-1,2,3,4-tetrahydrochromeno[3,4-b]pyridine-4-carboxylate] registered a melting point of 235 to 237 °C. At PKD1 [1], the “IC50 IMAP-FP PKD1” value is “not inhibitory”.

The IC50 is the concentration at which inhibition is half-maximal. On to `COc1ccc2oc3c(c2c1)CCCN(C)C3=O` [kb-NB96-04, 7-Methoxy-2-methyl-2,3,4,5-tetrahydro-[1]benzoxolo[2,3-c]azepin-1-one], for which the melting point was in the range of 150 to 151 °C. The same molecule came in with an IC50 against PKD1 [1] of over 100 µM.

With `CC=Cc1c(O)ccc2oc3c(c12)CCCNC3=O` [kb-NB96-30, 6-[(E)-2-(Prop-1-enyl) ]-7-hydroxy-2,3,4,5-tetrahydro-[1]benzoxolo[2,3-c]azepin-1-one], the melting point is over 300 °C.

Consider `O=C1NCCCc2c1oc1cc(Cl)c(O)c(Cl)c21` [kb-NB96-43, 6,8-Dichloro-7-hydroxy-2,3,4,5-tetrahydro-[1]benzoxolo[2,3-c]azepin-1-one], for which the melting point fell in the range of 298 to 301 °C. For the same molecule, at PKD1 [1], the “IC50 IMAP-FP PKD1” value was “not inhibitory”.

With `O=c1oc2ccc(O)c(Cl)c2c2c1NCCC2` [kb-NB96-47-1, 10-Chloro-9-hydroxy-1,2,3,4-tetrahydrochromeno[3,4-b]pyridin-5-one], the melting point was 211 to 213 °C. In addition, the “IC50 IMAP-FP PKD1” value on PKD1 [1] is reported as “not inhibitory”.

Regarding `O=C1NCCCc2c1oc1cc(Cl)c(O)cc21` [kb-NB96-47-5, 8-Chloro-7-hydroxy-2,3,4,5-tetrahydro-[1]benzoxolo[2,3-c]azepin-1-one], the melting point lay in the range of 327 to 332 °C.

With `C=CCOc1ccc2oc3c(c2c1Cl)CCCNC3=O` [kb-NB96-50, 7-Allyloxy-6-chloro-2,3,4,5-tetrahydro-[1]benzoxolo[2,3-c]azepin-1-one], the melting point lay in the range of 192 to 194 °C. Further, at PKD1 [1], the “IC50 IMAP-FP PKD1” value is “not inhibitory”.

The molecule `COc1ccc2oc3c(c2c1)CCNC3=O` [kb-NB123-32, 6-Methoxy-3,4-dihydrobenzoxolo[2,3-c]pyridin-1(2H)-one] displayed a melting point of 237 to 241 °C. For the same molecule, the concentration for half-maximal inhibition (IC50) at PKD1 [1] is over 100 µM.

As for `CC(=O)Oc1ccc2oc3c(c2c1)CCCNC3=O` [kb-NB123-36, 7-Acetoxy-2,3,4,5-tetrahydro-[1]benzoxolo[2,3-c]azepin-1-one], the melting point lay within 196 to 197 °C. For the same molecule, at PKD1 [1], the IC50 is 84.9 ± 3.21 µM.

As to `COc1ccc2oc3c(c2c1)CCN(C)C3=O` [kb-NB123-37, 6-Methoxy-2-methyl-3,4-dihydrobenzoxolo[2,3-c]pyridin-1(2H)-one], the melting point lay in the range of 168 to 172 °C. Besides, the “IC50 IMAP-FP PKD1” value against PKD1 [1] is reported as “not inhibitory”.

As for `CC(=O)Oc1ccc2oc3c(c2c1)CCCN(C(C)=O)C3=O` [kb-NB123-45-1, 2-Acetyl-1-oxo-2,3,4,5-tetrahydro-[1]benzoxolo[2,3-c]azepin-7-yl acetate], the melting point lay within 155 to 157 °C. For the same molecule, on PKD1 [1], the “IC50 IMAP-FP PKD1” value is “not inhibitory”.

`O=C1NCCc2c1[nH]c1ccc(OCc3ccccc3)cc21` [kb-NB123-52, 2,3,4,9-Tetrahydro-6-benzyloxy-1H-pyrido[3,4-b]indol-1-one] registered a melting point of 208 to 210 °C. On PKD1 [1], the “IC50 IMAP-FP PKD1” value is “not inhibitory”.

In the case of `O=C1NCCCc2c1[nH]c1ccc(OCc3ccccc3)cc21` [kb-NB123-53, 3,4,5,10-Tetrahydro-7-benzyloxy-azepino[3,4-b]indol-1(2H)-one], the “IC50 IMAP-FP PKD1” value at PKD1 [1] is given as “not inhibitory”.

The molecule `O=C1NCCSc2c1sc1ccc(OCc3ccccc3)cc21` [kb-NB123-66, 3,4-Dihydro-9-benzyloxy-[1]benzothieno[2,3-f]-1,4-thiazepin-5(2H)-one] yielded a melting point of 247 to 249 °C. Moreover, the “IC50 IMAP-FP PKD1” value against PKD1 [1] was “not inhibitory”.

`CC(=O)Nc1ccc2[nH]c3c(c2c1)CCNC3=O` [kb-NB123-93, N-(2,3,4,9-Tetrahydro-1-oxo-1H-pyrido[3,4-b]indol-6-yl)-acetamide] gave a melting point of over 300 °C. In addition, the “IC50 IMAP-FP PKD1” value against PKD1 [1] is given as “not inhibitory”.

Consider `CC(=O)Nc1ccc2[nH]c3c(c2c1)CCCNC3=O` [kb-NB123-94], for which the melting point is over 300 °C. Further, the “IC50 IMAP-FP PKD1” value at PKD1 [1] is “not inhibitory”.

`CN1CCCc2c(oc3ccc(O)cc23)C1=O` [kb-NB142-25, 7-Hydroxy-2-methyl-2,3,4,5-tetrahydro-[1]benzoxolo[2,3-c]azepin-1-one] yielded a melting point of 282 to 284 °C. Further, on PKD1 [2] (setting [3]), the IC50 amounted to 4 ± 1.1 µM.

Regarding `Oc1ccc2oc3c(c2c1)CCCN1CCN=C31` [kb-NB165-15, 9-Hydroxy-3,5,6,7-tetrahydro-2H-benzoxolo[2,3-c]imidazo[1,2-a]azepine], the melting point was 230 to 232 °C (dec.). On PKD1 [2] (setting [3]), the “IC50 Radiometric PKD1” value is “not inhibitory”.

Consider `COc1ccc2sc3c(c2c1)SCCN(C)C3=O` [kb-NB165-16, 2,3-Dihydro-4-methyl-9-methoxy-[1]benzothieno[2,3-f]-1,4-thiazepin-5(2H)-one], for which the melting point fell in the range of 160 to 161 °C. Besides, on PKD1 [2] (setting [3]), the IC50 came out at 4.57 ± 0.78 µM.

`CN1CCSc2c(sc3ccc(O)cc23)C1=O` [kb-NB165-17, 2,3-Dihydro-4-methyl-9-hydroxy-[1]benzothieno[2,3-f]-1,4-thiazepin-5(2H)-one] came in with a melting point of 265 to 268 °C. Further, the IC50 on PKD1 [2] (setting [3]) was found to be 0.45 ± 0.05 µM.

As for `COc1nc(OC)c2sc3c(c2n1)SCCNC3=O` [kmg-NB5-13C, 2,4-Dimethoxy-7H,8H,9H-1,4-thiazepino[7′,6′-5,4]thiopheno[3,2-d]pyrimidin-6-one], the melting point is 288 °C (dec.). Also, the concentration for half-maximal inhibition (IC50) at PKD1 [2] (setting [3]) was over 30 µM. At PKD1 [2], the “inhibitory activity against PKD (in words)” value is “absence of inhibitory activity”.

For `COc1nc(O)c2sc3c(c2n1)SCCNC3=O` [kmg-NB5-15A, 4-Hydroxy-2-methoxy-7H,8H,9H-1,4-thiazepino[7′,6′-5,4]thiopheno[3,2-d]pyrimidin-6-one], the melting point is 295 °C (dec.). Moreover, the “inhibitory activity against PKD (in words)” value against PKD1 [2] is recorded as “absence of inhibitory activity”.

The molecule `O=C1NCCSc2c1sc1ccc(N=C=S)cc21` [mcf292-05, 3,4-Dihydro-9-isothiocyanato-[1]benzothieno[2,3-f]-1,4-thiazepin-5(2H)-one] displayed a melting point of 253 to 253.3 °C. In addition, the 50% inhibitory concentration (IC50) on PKD1 [2] (setting [3]) was found to be 2.77 µM.

On to `O=C(CCl)Nc1ccc2sc3c(c2c1)SCCNC3=O` [mcf292-09, 3,4-Dihydro-9-(2-chloroacetamido)-[1]benzothieno[2,3-f]-1,4-thiazepin-5(2H)-one], for which the melting point was 229 to 230 °C (dec.). Besides, the IC50 at PKD1 [2] (setting [3]) was found to be 1.5 µM.
